Data on 1 molecule can be found in the NIST ThermoML archive (doi:10.1016/j.jct.2004.01.006).

Numbers after ± are expanded uncertainties.

For this data set the following is noted: Crystal; Adiabatic calorimetry.

Regarding `O=Cc1ccc(Cl)cc1Cl` [2,4-dichlorobenzaldehyde], the Triple point temperature is 347.24 ± 0.27 K.
